From patent publication US20120034193A1, “TREATMENT OF NEUROTROPHIC FACTOR MEDIATED DISORDERS” (priority 2009, published 2012)
Where a name gives a salt, the structure may show the parent alone.

Key:
C57b1/6 RJ mice = experiment: Sciatic nerve crush model; format: in vivo, Mouse; details: 10 μg/kg/day i.p.; nerve crush alone 109.10 ± 2.65
Description: The sciatic nerve crush model is a well characterised reversible model for motor neurone disease and post-traumatic nerve injuries (McMahon and Priestley, Current Opinion in Neurobiology, 1995, 5, pp. 616-624). The nerve damage is produced by mechanical pressure using haemostatic forceps, applied twice, 5 mm proximal to the trifurcation of the right sciatic nerve of these mice. […] The loss of nerve function recovers progressively over a 4-5 week period after the mechanical insult.
4-Methylcatechol (10 μg/kg/day, i.p.) was used as a positive control (Kaechi et al., Journal of Phamacology and Experimental Therapeutics, 1995, 272, pp. 1300-1304).
C57b1/6 RJ mice were anaesthetised with ketamine chlorhydrate (60 mg/kg, i.p.). The sciatic nerve was surgically exposed at mid thigh level and crushed at 5 mm proximal to the trifurcation of the sciatic nerve. The nerve was crushed twice for 30 s with a haemostatic forceps with a 90-degree rotation between each crush. […] The loss of nerve function recovered progressively over a 4-5 week period after mechanical insult. Electromyographic recordings were assessed as described above.

BDNF mRNA = BDNF mRNA expression in rat cortical neurones under basal conditions (rt RT-PCR); format: cell-based; details: 0.5 mM
Description: (§1) Rat cortical neurones were cultured by modification of a method previously described (Singer, et al., Neuroscience Letters, 1996, 212, pp. 13-16). Twelve days after the start of culturing, sarsasapogenin (30 nM), smilagenin (30 nM), 4-methylcatechol (0.5 mM), an inducer of NGF and BDNF release (Saporito et al., Experimental Neurology., 1993, 123, pp. 295-302; Nitta et al., Journal of Pharmacology and Experimental Therapeutics, 1999, 291, pp. 1276-1283) or vehicle (dimethyl sulfoxide, DMSO, 0.25%) were added for 1, 3 or 6 h. After incubation the total messenger ribonucleic acid (mRNA) was quantified using real time reverse transcription-polymerase chain reaction (rt RT-PCR).

trkB mRNA = trkB mRNA expression in rat cortical neurones under basal conditions (rt RT-PCR); format: cell-based; details: 0.5 mM
Description: as §1

pmn mice = details: literature; CNTF i.p. CNTF-secreting cells, Xaliproden oral from birth, CGP 3466B oral at onset; cited from earlier work
[1] = tested on: rat primary cortical neurones; experiment: Inhibition of induced neurite outgrowth by K252a or PD98059; format: cell-based
Description: (§2) Cortical neurones were cultured as detailed above. Neurones were exposed to vehicle (DMSO, 0.25%) or K252a (100 nM) for 1 h. After 1 h, vehicle, sarsasapogenin, smilagenin (30 nM) or BDNF (1.85 nM) was added to the medium in the maintained presence of K252a. Following 24 h exposure to sarsasapogenin or smilagenin (30 nM), vehicle (DMSO, 0.25%) or BDNF (1.85 nM), the neurones were washed using phosphate-buffered saline (PBS) and fixed in glutaraldehyde (2.5%) in PBS. Photographs of 40-60 neurones expressing neurites were taken with a camera fixed on a microscope (objective ×20, Nikon). The neurite length was measured by an analysis of the photographs.
as §2, with “PD98059 (10 μM)” for “K252a (100 nM)”, “vehicle,” for “vehicle, sarsasapogenin,”, “PD98059.” for “K252a.”, “to” for “to sarsasapogenin or”, “PBS” for “phosphate-buffered saline (PBS)”

[2] = tested on: Rat spinal motor neurones; experiment: Neuronal survival and neurite outgrowth in spinal motor neurones; format: cell-based; details: 3 days
Description: Rat spinal motor neurones were prepared according to a previously described method (Martinou et al, Neuron, 8, 737-744, 1992). Following 3 days of culturing with sarsasapogenin, smilagenin, vehicle (DMSO, 0.25%), Xaliproden, or BDNF, spinal cord motor neurones were washed twice in PBS, fixed in a cold solution of alcohol (95%) and acetic acid (5%) for 5 min and then rinsed 3 times in PBS. Neurones were stained using a monoclonal antibody anti β-tubulin and an anti mouse Immunoglobulin G. These antibodies stained neurone cell bodies (quantifying the neuroprotective effect) and neurites (quantifying the neurotrophic effect). The cell nuclei were stained by a fluorescent marker. After 1 h of incubation, cells were washed 3 times in PBS. […] A series of pictures were taken using a camera controlled by computer software. All the images were taken under the same conditions. Analyses of the number of cells labelled with anti β-tubulin antibodies and of the total number of cells (number of stained nuclei) were performed using LUCIA 6.0 software.

[3] = tested on: rat primary cortical neurones; experiment: Pre-treatment against glutamate-induced damage (LDH) in cortical neurones; format: cell-based; details: 24 h before and 24 h after glutamate 100 μM 10 min
Description: Exposure of rat primary cortical neurones to glutamate increases lactate dehydrogenase (LDH) activity measured 24 h after glutamate exposure, indicating significant neuronal damage. Rat cortical neurones were cultured by modification of a method previously described (Singer, et al., Neuroscience Letters, 1996, 212, pp. 13-16). On day 10 of culture, the medium was changed to a serum-free defined medium. On day 12, the cultures were washed and placed for 24 h in fresh medium containing test compound or vehicle (DMSO, 0.25%). On day 13 neurones were exposed to glutamate (100 μM; 10 min) at 37° C. The cultures were then washed with, and placed in, fresh medium supplemented with test compound or vehicle for a further 24 h before LDH was measured. Neuronal damage was assessed by measuring LDH activity in the media at 24 h after glutamate exposure.

Rat cortical neurones [4] = experiment: Neuritogenesis in cortical neurones; format: cell-based; details: 3 nM, 24 h
Description: Rat cortical neurones were cultured by modification of a previously described method (Singer, et al., Neuroscience Letters, 1996, 212, pp. 13-16). Cells were cultured with sarsasapogenin, smilagenin, vehicle (DMSO 0.25%), GDNF, BDNF or NGF for 24 h. For each group, 15 pictures showing neurones displaying neurites were selected at random in each field, and for each neurone the longest neurite was measured. The neurite number was measured by counting the number of neurones displaying neurites, the number of neurones not displaying neurites and the number of total neurones in each field. Six fields per well were examined.
The results are shown in Table 15 below, expressed as the number of neurones with neurites per field as a percentage of the total number of neurones per field.

Rat cortical neurones [5] = experiment: Neuronal survival and neurite outgrowth of cortical neurones cultured in the absence of serum; format: cell-based; details: 3 nM, one day, no serum
Description: Rat cortical neurones were cultured following the method described above.
The test compounds were added for 24 h.
Rat cortical neurones were exposed to sarsasapogenin, smilagenin (30 nM) or vehicle (DMSO, 0.25%) in the absence FBS or FCS for one day. Cortical neurones were stained using a monoclonal antibody anti β-tubulin diluted and an anti mouse Immunoglobulin G diluted. These antibodies stained neurone cell bodies (quantifying the neuroprotective effect) and neurites (quantifying the neurotrophic effect). An epifluorecence microscope (magnification ×20) with a camera took 2 pictures per well (10 pictures per condition). Analyses of the number of cells labelled with anti β-tubulin antibodies and of the total number of cells was performed using LUCIA 6.0 software.

[6] = tested on: Rat spinal motor neurones; experiment: Reversal of glutamate-induced damage in spinal motor neurones; format: cell-based; details: 3 nM for 48 h after glutamate 4 μM 10 min
Description: The rat spinal motor neurones were prepared as detailed above. On day 10, the medium was removed and the cultures exposed to glutamate (4 μM) for 10 min at 37° C. in 5% CO2/95% air atmosphere in defined medium. After the glutamate exposure, cultures were washed with DMEM at 37° C. then placed in fresh culture medium containing sarsasapogenin, smilagenin, vehicle or BDNF. After 48 h, the extent of motor neurone damage was determined as detailed above. This Example develops the work reported in Example 8 of PCT patent application No. WO-A-03/082893.

**Q.** For `Cc1ccc(O)c(O)c1` [4-Methylcatechol, reference compound], which “Degenerated fibres (% of control)” value (C57b1/6 RJ mice) is on record?
**A.** Its value is −7.48 ± 1.62 % of control.

**Q.** And the “BDNF mRNA, % increase above control” value (BDNF mRNA; 1 h)?
**A.** Its value is “No increase”.

**Q.** What about the “BDNF mRNA, % increase above control” value (BDNF mRNA; 3 h) of the same molecule?
**A.** The value was “No increase”.

**Q.** And the “BDNF mRNA, % increase above control” value (BDNF mRNA; 6 h)?
**A.** Its value is 92%.

**Q.** And the “trkB mRNA, % increase above control” value (trkB mRNA; 1 h)?
**A.** Its value is “No increase”.

**Q.** What about the “trkB mRNA, % increase above control” value (trkB mRNA; 3 h) of the same molecule?
**A.** Its value is “No increase”.

**Q.** And the “trkB mRNA, % increase above control” value (trkB mRNA; 6 h)?
**A.** The value was “No increase”.

**Q.** Which “Increase of survival time / lifespan of pmn mice” value (pmn mice) does the source give for `Cc1c(C)c2c(c(C)c1O)CC[C@@](C)(C(=O)N1CCN(c3ccc(N=C(N)c4cccs4)cc3)CC1)O2` [BN 80933] here?
**A.** Its value is 40%.

**Q.** With `C#CCN(C)CC1=Cc2ccccc2Oc2ccccc21.O=C(O)/C=C\C(=O)O` [CGP 3466B] as the molecule, how does the “Increase of survival time / lifespan of pmn mice” value (pmn mice) read?
**A.** Its value is 57%.

**Q.** With `COC(=O)[C@@]1(O)C[C@H]2O[C@]1(C)n1c3ccccc3c3c4c(c5c6ccccc6n2c5c31)C(=O)NC4` [K252a, reference compound] as the molecule, how does the “Neurite length (% of control)” value ([1]; K252a 100 nM alone (control with K252a)) read?
**A.** The value was 95.22 ± 3.10 % of control.

**Q.** With `COc1cccc(-c2cc(=O)c3ccccc3o2)c1N` [PD98059, reference compound] as the molecule, how does the “Neurite length (% of control)” value ([1]; PD98059 10 μM alone (control with PD98059)) read?
**A.** The value was 96.08 ± 2.47 % of control.

**Q.** Which results are given for `FC(F)(F)c1cccc(C2=CCN(CCc3ccc4ccccc4c3)CC2)c1` [Xaliproden, 1-[2-(naphth-2-yl)ethyl]-4-(3-trifluoromethylphenyl)-1,2,5,6-tetra-hydropyri-dine hydrochloride, reference compound]?
**A.** Increase of survival time / lifespan of pmn mice (pmn mice): ~50%; Neurite outgrowth (% of control) ([2]; 30 nM): 137.57 ± 11.69 % of control; Neuronal survival (% of control) ([2]; 30 nM): 110.95 ± 2.14 % of control; Neurite outgrowth (% of control) ([2]; 100 nM): 137.55 ± 6.76 % of control; Neuronal survival (% of control) ([2]; 100 nM): 111.18 ± 2.85 % of control; Neurite outgrowth (% of control) ([2]; 300 nM): 131.22 ± 7.93 % of control; Neuronal survival (% of control) ([2]; 300 nM): 109.47 ± 3.34 % of control

**Q.** With `C[C@@H]1CC[C@@]2(OC1)O[C@H]1C[C@H]3[C@@H]4CC=C5C[C@@H](O)CC[C@]5(C)[C@H]4CC[C@]3(C)[C@H]1[C@@H]2C` [diosgenin, reference compound] as the molecule, how does the “Neuronal survival (% of control)” value ([3]; 3 nM) read?
**A.** Its value is 69.43 ± 1.76 % of control.

**Q.** And the “Neuronal survival (% of control)” value ([3]; 10 nM)?
**A.** The value was 66.51 ± 5.13 % of control.

**Q.** And the “Neuronal survival (% of control)” value ([3]; 30 nM)?
**A.** Its value is 68.98 ± 5.39 % of control.

**Q.** What about the “Neuronal survival (% of control)” value ([3]; 100 nM) of the same molecule?
**A.** The value was 70.95 ± 5.03 % of control.

**Q.** And the “Neuronal survival (% of control)” value ([3]; 300 nM)?
**A.** The value was 75.02 ± 2.68 % of control.

B1: BDNF: brain-derived neurotrophic factor (protein, UniProt P23560 19-247, looked up)
Neurotrophic factor BDNF …: APMKEANIRGQGGLAYPGVRTHGTLESVNGPKAGSRGLTSLADTFEHVIEELLDEDQKVRPNEENNKDADLYTSRVMLSSQVPLEPPLLFLLEEYKNYLDAANMSMRVRRHSDPARRGELSVCDSISEWVTAADKKTAVDMSGGTVTVLEKVPVSKGQLKQYFYETKCNPMGYTKEGCRGIDKRHWNSQCRTTQSYVRALTMDSKKRIGWRFIRIDTSCVCTLTIKRGR
**Q.** Which results are given for B1?
**A.** Neurite length (% of control) (Rat cortical neurones [4]): 162.34 ± 5.91 % of control; Neurones displaying neurites (%) (Rat cortical neurones [4]; control 39.35 ± 2.06): 48.06 ± 2.17 %; Neurite outgrowth (% of control) (Rat cortical neurones [5]): 146.84 ± 9.27 % of control; Neuronal survival (% of control) (Rat cortical neurones [5]): 162.75 ± 5.61 % of control; Neuronal survival (% of control) [6]: 106.60 ± 6.14 % of control; Neurite outgrowth (% of control) ([2]; 1.85 nM): 176.91 ± 7.25 % of control; Neuronal survival (% of control) ([2]; 1.85 nM): 126.15 ± 1.60 % of control; Neurite length (% of control) ([1]; 1.85 nM, 24 h, no inhibitor): 125.30 ± 5.80^++++ % of control; Neurite length (% of control) ([1]; 1.85 nM, 24 h, with K252a (100 nM)): 87.31 ± 2.20 % of control; Neurite length (% of control) ([1]; 1.85 nM, 24 h, with PD98059 (10 μM)): 99.07 ± 5.15 % of control

B2: CNTF: ciliary neurotrophic factor; i.p. administration of CNTF-secreting cells (protein, UniProt P26441 1-200, looked up)
Ciliary neurotrophic factor: MAFTEHSPLTPHRRDLCSRSIWLARKIRSDLTALTESYVKHQGLNKNINLDSADGMPVASTDQWSELTEAERLQENLQAYRTFHVLLARLLEDQQVHFTPTEGDFHQAIHTLLLQVAAFAYQIEELMILLEYKIPRNEADGMPINVGDGGLFEKKLWGLKVLQELSQWTVRSIHDLRFISSHQTGIPARGSHYIANNKKM
modifications: secreted by cells
**Q.** With B2 as the molecule, how does the “Increase of survival time / lifespan of pmn mice” value (pmn mice) read?
**A.** Its value is 40%.
